Measurements from patent US7723467B2, “Antimicrobial compounds” (New England Medical Center Hospitals, Inc., priority 2000, dated 2010).
Read-outs that look alike come from different tables or passages of the source. Non-standard residues stand in square brackets, D forms with d. No end group written: not given here.

Assays:
Format in all cases: cell-based
[1] = test system: Staphylococcus aureus NCTC 4163
Method: (§1) The assays are standardized by using a predictable predetermined number of cells, and the lowest observed concentration of the agent that inhibits growth is defined as the minimum inhibitory concentration (MIC).
(§2) Antimicrobial activity, specifically antibacterial activity, was assayed using cells of each of Staphylococcus aureus NCTC 4163, Escherichia coli NCTC 8196, Pseudomonas aeruginosa NCTC 6749, Proteus vulgaris NCTC 4635, and Enterococcus faecalis ATCC 19212. To determine the minimum inhibitory concentration (MIC), the microdilution broth method, well-known to one of ordinary skill in the art of microbiology, was used. Cells of each bacterial strain were collected in the logarithmic phase of growth, and resuspended in nutrient broth. The concentration of colony-forming units (CFU) per milliliter was quantified by measuring absorption of light at 600 nm (A600).
(§3) Peptide samples were dissolved in nutrient broth (pH 7.0) and diluted serially. The sample solution (100 μl) was mixed with the diluted bacterial suspension (100 μl). Mixtures containing 105 bacterial CFU, and from 1% to 0.003% of test peptides, were incubated for 24 h at 37° C. […] The indolicidin antibacterial property with cells of S. aureus was used as a positive control reference.

[2] = test system: Escherichia coli NCTC 8196
Method: as §1, §2, §3

[3] = test system: Enterococcus faecalis ATCC 19212
Method: as §1, §2, §3

[4] = test system: Proteus vulgaris NCTC 4635
Method: as §1, §2, §3

[5] = test system: Pseudomonas aeruginosa NCTC 6749
Method: as §1, §2, §3

[6] = test system: Candida albicans NCTC 10231
Method: Anti-fungal activity is similarly assayed, using log phase vegetative fungal cells.
(§4) Antifungal activity was assayed using Candida albicans NCTC 10231 as a target fungus. Candida cells in the logarithmic phase of growth were suspended in dextrose broth medium at a density of 10^5 CFU/ml. A mixture of the sample solution (100 μl) and the fungal suspension (100 μl) was incubated for 24 h at 37° C.

microorganism = test: Mixing experiments of SP with SP antagonist
microorganisms tested = test: Antimicrobial activity across the microorganisms tested; conditions: compared with SP
Method: as §2, §3, §4

[7] = 100% inhibition of growth, 24 h at 37° C., nutrient broth pH 7.0
[8] = dextrose broth, 24 h at 37° C., turbidity

Substance | Minimal Inhibitory Concentration MIC (%) S. aureus ([1]; NCTC 4163, 24 h, pH 7) | Minimal Inhibitory Concentration MIC (%) E. coli ([2]; NCTC 8196, 24 h, pH 7) | Minimal Inhibitory Concentration MIC (%) E. faecalis ([3]; ATCC 19212, 24 h, pH 7) | Minimal Inhibitory Concentration MIC (%) P. vulgaris ([4]; NCTC 4635, 24 h, pH 7) | Minimal Inhibitory Concentration MIC (%) P. aeruginosa ([5]; NCTC 6749, 24 h, pH 7) | Minimal Inhibitory Concentration MIC (%) C. albicans ([6]; NCTC 10231, 24 h) | Minimal Inhibitory Concentration MIC (%) S. aureus [1, 7] | antimicrobial potency compared with indolicidin ([1]; cells of S. aureus) | Minimal Inhibitory Concentration MIC (%) E. coli [2, 7] | Minimal Inhibitory Concentration MIC (%) E. faecalis [3, 7] | Minimal Inhibitory Concentration MIC (%) P. vulgaris [4, 7] | Minimal Inhibitory Concentration MIC (%) P. aeruginosa [5, 7] | antifungal properties against C. albicans [6] | Minimal Inhibitory Concentration MIC (%) C. albicans [6, 8] | blocking of the antimicrobial effect by the presence of SP antagonist (microorganism) | potency against C. albicans relative to SP or bradykinin [6] | activity compared with indolicidin ([6]; cells of C. albicans) | MIC fold higher (weaker potency) on the other bacteria tested (microorganisms tested)
RPPGFSPFR [Bradykinin, reference compound] | 0.5% | 0.5% | >1% | 0.5% | 1.0% | 0.25% | – | – | – | – | – | – | – | – | – | – | – | –
Arg-Pro-Lys-Pro-Gln-Gln-Phe-Phe-Gly-Leu-MetNH2 [SEQ ID NO: 1] | – | – | – | – | – | – | 0.007% | equally potent to indolicidin | 0.06% | 0.13% | 0.13% | 0.13% | found to have antifungal properties | 0.25% | not to be blocked | – | – | –
Ile-Leu-Pro-Trp-Lys-Trp-Pro-Trp-Trp-Pro-Trp-Arg-Arg-NH2 (ILPWKWPWWPWRR-NH2; listed as Homo sapiens) [Indolicidin, reference compound] | – | – | – | – | – | – | 0.003% | – | 0.007% | – | – | – | – | 0.015% | – | – | – | –
Arg-D-Pro-Lys-Pro-Gln-Gln-D-Trp-Phe-D-Trp-Leu-MetNH2 (R[dP]KPQQ[dW]F[dW]LM-NH2; N-terminus assumed; SMILES CSCC[C@H](NC(=O)[C@H](CC(C)C)NC(=O)[C@@H](Cc1c[nH]c2ccccc12)NC(=O)[C@H](Cc1ccccc1)NC(=O)[C@@H](Cc1c[nH]c2ccccc12)NC(=O)[C@H](CCC(N)=O)NC(=O)[C@H](CCC(N)=O)NC(=O)[C@@H]1CCCN1C(=O)[C@H](CCCCN)NC(=O)[C@H]1CCCN1C(=O)[C@@H](N)CCCNC(=N)N)C(N)=O; listed as Homo sapiens) [SEQ ID NO: 2] | – | – | – | – | – | – | 0.13% | – | 0.13% | 0.13% | 0.13% | 0.13% | – | 0.03% | – | approximately 10 times | comparable to that of indolicidin | 10- to 20 fold
